How the values were obtained:
[1] = target: p38α (Homo sapiens, UniProt Q16539); experiment: p38α/MK2 cascade assay; type: biochemical; conditions: Table 1; inhibitors preincubated with p38α for 40 minutes; phosphorylation of Hsp27 peptide by MK-2, Caliper LabChip 3000; read-out: p38a/MK2 Cascade 40 min Pre-Incuabtion (% Inhibition): IC50
Procedure, shortened: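 In a cascade format, p38α was preincubated 40 min with inhibitor (1000–0.05 nM) before adding 1 nM nonactive MK2 (54-400), 5 μM MgATP and 0.5 μM FITC-Hsp27 peptide. Reaction ran 60 min in HEPES pH 7.5 with MgCl2, DTT, 2% DMSO, then EDTA-quenched. Peptide phosphorylation was measured by Caliper mobility shift to give IC50.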

p38α, sequence (Q16539 whole entry): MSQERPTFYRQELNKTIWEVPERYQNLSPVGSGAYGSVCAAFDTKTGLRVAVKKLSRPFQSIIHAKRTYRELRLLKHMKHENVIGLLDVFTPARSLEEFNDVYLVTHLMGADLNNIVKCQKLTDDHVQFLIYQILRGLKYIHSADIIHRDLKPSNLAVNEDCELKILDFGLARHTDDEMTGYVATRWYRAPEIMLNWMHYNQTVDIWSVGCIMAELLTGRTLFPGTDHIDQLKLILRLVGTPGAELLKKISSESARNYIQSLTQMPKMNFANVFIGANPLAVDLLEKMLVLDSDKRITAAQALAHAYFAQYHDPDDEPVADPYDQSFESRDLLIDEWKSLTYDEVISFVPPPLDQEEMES

| Structure (SMILES) | melting point | IC50 [1] |
| --- | --- | --- |
| CNC(=O)c1ccc(C)c(-n2c(C)cc(OCc3ccc(F)cc3CNC(=O)Nc3cc(C(C)(C)C)nn3-c3ccc(O)c(Cl)c3)c(Cl)c2=O)c1 [Example 169, 3-[4-(2-{3-[5-tert-butyl-2-(3-chloro-4-hydroxy-phenyl)-2H-pyrazol-3-yl]-ureidomethyl}-4-fluoro-benzyloxy)-3-chloro-6-methyl-2-oxo-2H-pyridin-1-yl]-4,N-dimethyl-benzamide] | 177 to 180 °C |  |
| Cc1ccc(C(=O)NCCN(C)C)cc1-n1c(C)cc(OCc2ccc(F)cc2CNC(=O)Nc2cc(C(C)(C)C)nn2-c2ccc(Cl)c(O)c2)c(Cl)c1=O [Example 166, 3-[4-(2-{3-[5-tert-Butyl-2-(4-chloro-3-hydroxy-phenyl)-2H-pyrazol-3-yl]-ureidomethyl}-4-fluoro-benzyloxy)-3-chloro-6-methyl-2-oxo-2H-pyridin-1-yl]-N-(2-dimethylamino-ethyl)-4-methyl-benzamide] | 177 to 178 °C |  |
| COC(=O)c1ccc(C)c(-n2c(C)cc(OCc3ccccc3CNC(=O)Nc3cc(C(C)(C)C)nn3-c3ccc(O)cc3)c(Cl)c2=O)c1 [Example 135, 3-[4-(2-{3-[5-tert-butyl-2-(4-hydroxy-phenyl)-2H-pyrazol-3-yl]-ureidomethyl}-benzyloxy)-3-chloro-6-methyl-2-oxo-2H-pyridin-1-yl]-4-methyl-benzoic acid methyl ester] | 199 to 200 °C |  |
| Cc1ccc(C(=O)NCC(O)CO)cc1-n1c(C)cc(OCc2ccccc2CNC(=O)Nc2cc(C(C)(C)C)nn2-c2ccc(Cl)c(O)c2)c(Cl)c1=O (centres unmarked) [Example 168, 3-[4-(2-{3-[5-tert-Butyl-2-(4-chloro-3-hydroxy-phenyl)-2H-pyrazol-3-yl]-ureidomethyl}-benzyloxy)-3-chloro-6-methyl-2-oxo-2H-pyridin-1-yl]-N-(2,3-dihydroxy-propyl)-4-methyl-benzamide] | 169 to 171 °C |  |
| CNC(=O)c1ccc(C)c(-n2c(C)cc(OCc3ccccc3CNC(=O)Nc3cc(C(C)(C)C)nn3-c3ccc(O)c(Cl)c3)c(Cl)c2=O)c1 [Example 153, 3-[4-(2-{3-[5-tert-butyl-2-(3-chloro-4-hydroxy-phenyl)-2H-pyrazol-3-yl]-ureidomethyl}-benzyloxy)-3-chloro-6-methyl-2-oxo-2H-pyridin-1-yl]-4,N-dimethyl-benzamide] | 201 to 203 °C |  |
| CNC(=O)CNC(=O)c1ccc(C)c(-n2c(C)cc(OCc3ccccc3CNC(=O)Nc3cc(C(C)(C)C)nn3-c3ccc(Cl)c(O)c3)c(Cl)c2=O)c1 [Example 167, 3-[4-(2-{3-[5-tert-Butyl-2-(4-chloro-3-hydroxy-phenyl)-2H-pyrazol-3-yl]-ureidomethyl}-benzyloxy)-3-chloro-6-methyl-2-oxo-2H-pyridin-1-yl]-4-methyl-N-methylcarbamoylmethyl-benzamide] | 179 to 181 °C | 1.7 nM |
| Cc1ccc(C(=O)NCC(O)CO)cc1-n1c(C)cc(OCc2ccccc2CNC(=O)Nc2cc(C(C)(C)C)nn2-c2ccc(O)c(Cl)c2)c(Cl)c1=O (centres unmarked) [Example 157, 3-[4-(2-{3-[5-tert-butyl-2-(3-chloro-4-hydroxy-phenyl)-2H-pyrazol-3-yl]-ureidomethyl}-benzyloxy)-3-chloro-6-methyl-2-oxo-2H-pyridin-1-yl]-N-(2,3-dihydroxy-propyl)-4-methyl-benzamide] | 173 to 175 °C |  |
| CNC(=O)CNC(=O)c1ccc(C)c(-n2c(C)cc(OCc3ccccc3CNC(=O)Nc3cc(C(C)(C)C)nn3-c3ccc(O)c(Cl)c3)c(Cl)c2=O)c1 [Example 156, 3-[4-(2-{3-[5-tert-butyl-2-(3-chloro-4-hydroxy-phenyl)-2H-pyrazol-3-yl]-ureidomethyl}-benzyloxy)-3-chloro-6-methyl-2-oxo-2H-pyridin-1-yl]-4-methyl-N-methylcarbamoylmethyl-benzamide] | 209 to 211 °C | 3.5 nM |
| COC(=O)c1ccc(C)c(-n2c(C)cc(OCc3ccccc3CNC(=O)Nc3cc(C(C)(C)C)nn3-c3ccc(O)c(Cl)c3)c(Cl)c2=O)c1 [Example 137, 3-[4-(2-{3-[5-tert-butyl-2-(3-chloro-4-hydroxy-phenyl)-2H-pyrazol-3-yl]-ureidomethyl}-benzyloxy)-3-chloro-6-methyl-2-oxo-2H-pyridin-1-yl]-4-methyl-benzoic acid methyl ester] | 185 to 186 °C |  |
| Cc1ccc(C(=O)NC(C)C(N)=O)cc1-n1c(C)cc(OCc2ccccc2CNC(=O)Nc2cc(C(C)(C)C)nn2-c2ccc(O)c(Cl)c2)c(Cl)c1=O (stereo in doubt) [Example 159, (R)-3-[4-(2-{3-[5-tert-butyl-2-(3-chloro-4-hydroxy-phenyl)-2H-pyrazol-3-yl]-ureidomethyl}-benzyloxy)-3-chloro-6-methyl-2-oxo-2H-pyridin-1-yl]-N-(1-carbamoyl-ethyl)-4-methyl-benzamide] | 192 to 193 °C | 2.5 nM |

Continued, values first:

| melting point | IC50 [1] | Structure (SMILES) |
| --- | --- | --- |
| 180 to 181 °C |  | Cc1ccc(C(=O)OCCO)cc1-n1c(C)cc(OCc2ccc(F)cc2CNC(=O)Nc2cc(C(C)(C)C)nn2-c2cccc(OCCO)c2)c(Cl)c1=O [Example 180, 3-{4-[2-(3-{5-tert-butyl-2-[3-(2-hydroxy-ethoxy)-phenyl]-2H-pyrazol-3-yl}-ureidomethyl)-4-fluoro-benzyloxy]-3-chloro-6-methyl-2-oxo-2H-pyridin-1-yl}-4-methyl-benzoic acid 2-hydroxy-ethyl ester] |
| 164 to 165 °C |  | Cc1ccc(C(=O)NCCN(C)C)cc1-n1c(C)cc(OCc2ccccc2CNC(=O)Nc2cc(C(C)(C)C)nn2-c2cccc(OCCO)c2)c(Cl)c1=O [Example 174] |
| 181 to 182 °C |  | Cc1ccc(C(=O)NCCN(C)C)cc1-n1c(C)cc(OCc2ccccc2CNC(=O)Nc2cc(C(C)(C)C)nn2-c2ccc(O)c(Cl)c2)c(Cl)c1=O [Example 158, 3-[4-(2-{3-[5-tert-butyl-2-(3-chloro-4-hydroxy-phenyl)-2H-pyrazol-3-yl]-ureidomethyl}-benzyloxy)-3-chloro-6-methyl-2-oxo-2H-pyridin-1-yl]-N-(2-dimethylamino-ethyl)-4-methyl-benzamide] |
| 158 to 160 °C | 1.4 nM | Cc1ccc(C(=O)NCCN(C)C)cc1-n1c(C)cc(OCc2ccc(F)cc2CNC(=O)Nc2cc(C(C)(C)C)nn2-c2cccc(OCCO)c2)c(Cl)c1=O [Example 178] |
| 195 to 196 °C |  | Cc1ccc(C(=O)NCCO)cc1-n1c(C)cc(OCc2ccccc2CNC(=O)Nc2cc(C(C)(C)C)nn2-c2ccc(O)c(Cl)c2)c(Cl)c1=O [Example 154, 3-[4-(2-{3-[5-tert-butyl-2-(3-chloro-4-hydroxy-phenyl)-2H-pyrazol-3-yl]-ureidomethyl}-benzyloxy)-3-chloro-6-methyl-2-oxo-2H-pyridin-1-yl]-N-(2-hydroxy-ethyl)-4-methyl-benzamide] |
| 179 to 180 °C |  | COCCNC(=O)c1ccc(C)c(-n2c(C)cc(OCc3ccccc3CNC(=O)Nc3cc(C(C)(C)C)nn3-c3ccc(O)c(Cl)c3)c(Cl)c2=O)c1 [Example 155, 3-[4-(2-{3-[5-tert-butyl-2-(3-chloro-4-hydroxy-phenyl)-2H-pyrazol-3-yl]-ureidomethyl}-benzyloxy)-3-chloro-6-methyl-2-oxo-2H-pyridin-1-yl]-N-(2-methoxy-ethyl)-4-methyl-benzamide] |
| 143 to 145 °C |  | COCCNC(=O)c1ccc(C)c(-n2c(C)cc(OCc3ccccc3CNC(=O)Nc3cc(C(C)(C)C)nn3-c3cccc(OCCO)c3)c(Cl)c2=O)c1 [Example 173] |
| 158 to 160 °C |  | Cc1ccc(C(=O)NCC(O)CO)cc1-n1c(C)cc(OCc2ccccc2CNC(=O)Nc2cc(C(C)(C)C)nn2-c2cccc(OCCO)c2)c(Cl)c1=O (centres unmarked) [Example 134, 3-{4-[2-(3-{5-tert-Butyl-2-[3-(2-hydroxy-ethoxy)-phenyl]-2H-pyrazol-3-yl}-ureidomethyl)-benzyloxy]-3-chloro-6-methyl-2-oxo-2H-pyridin-1-yl}-N-(2,3-dihydroxy-propyl)-4-methyl-benzamide] |
| 147 to 148 °C |  | COC(=O)c1ccc(C)c(-n2c(C)cc(OCc3ccccc3CNC(=O)Nc3cc(C(C)(C)C)nn3-c3cccc(OCCO)c3)c(Cl)c2=O)c1 [Example 130, 3-{4-[2-(3-{5-tert-Butyl-2-[3-(2-hydroxy-ethoxy)-phenyl]-2H-pyrazol-3-yl}-ureidomethyl)-benzyloxy]-3-chloro-6-methyl-2-oxo-2H-pyridin-1-yl}-4-methyl-benzoic acid methyl ester] |

Reference: patent publication US20090270350A1, “Pyridinone Pyrazole Urea and Pyrimidinone Pyrazole Urea Derivatives” (PFIZER INC., priority 2006, published 2009)
